Read-outs that look alike come from different tables or passages of the source.
Assays:
Assay type in all cases: biochemical
Human factor Xa = target: T1, Human factor Xa (Homo sapiens, UniProt P00742); assay: Xa assay (chromogenic substrate S-2765); conditions: reported only as less than or greater than 30 uM; read-out: Factor Xa (II) IC50
T1 construct: purchased Enzyme Research Laboratories, South Bend Ind
Outline: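 Chromogenic readout: S-2765 hydrolysis (0.15 mM) by 0.3 nM human FXa was monitored at 405 nm after 60 min at room temperature, with a time-zero background read. Buffer: 50 mM Tris-HCl, pH 8.0, 100 mM NaCl, 0.1% BSA. Inhibition is relative to buffer-only controls.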

[1] = tested on: Normal human pooled plasma; assay: Prothrombin time (PT) clotting assay; conditions: concentration at which prothrombin time is prolonged by 2x normal, reported as less than or greater than 50 uM
Outline: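 Normal human pooled plasma incubated with 100 uM compound or saline, then thromboplastin (human tissue factor) added and clotting time recorded in a coagulation machine. Compounds exceeding 3× normal PT (11.0 s) are titrated to find the concentration doubling PT.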

[2] = target: T2, recombinant soluble tissue factor and recombinant human factor VIIa (TF-VIIa) (Homo sapiens, UniProt P08709); assay: TF-VIIa assay (chromogenic substrate hydrolysis); conditions: reported only as less than or greater than 0.1 uM
T2 construct: conversion of coagulation factor VII to VIIa by factor Xa; purchased American Diagnostica, Greenwich CT; host or cells: soluble TF made in house in E. coli
Outline: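 Chromogenic read at OD405, compared with control for percent inhibition. Substrate N-methylsulfonyl-D-phe-gly-arg-p-nitroaniline at 0.4 mM is cleaved by recombinant human VIIa (2 nM) complexed with soluble TF (100 nM). Buffer: pH 8.0 Tris-HCl 50 mM, CaCl2 5 mM, NaCl 100 mM, BSA 0.1%.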

Human thrombin = target: T3, Human thrombin (Homo sapiens, UniProt P00734); assay: Thrombin assay (chromogenic substrate)
T3 construct: converts prothrombin (II) to thrombin (IIa); purchased Calbiochem, La Jolla, Calif
Outline: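 Percent inhibition derived by comparing OD405 nm of compound-treated and control samples. Thrombin cleavage of a p-nitroanilide chromogenic substrate provides the signal.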

[3] = reported only as less than or greater than 30 uM, read-out: Thrombin (II) IC50

T1 sequence (P00742 235-488 limits assumed): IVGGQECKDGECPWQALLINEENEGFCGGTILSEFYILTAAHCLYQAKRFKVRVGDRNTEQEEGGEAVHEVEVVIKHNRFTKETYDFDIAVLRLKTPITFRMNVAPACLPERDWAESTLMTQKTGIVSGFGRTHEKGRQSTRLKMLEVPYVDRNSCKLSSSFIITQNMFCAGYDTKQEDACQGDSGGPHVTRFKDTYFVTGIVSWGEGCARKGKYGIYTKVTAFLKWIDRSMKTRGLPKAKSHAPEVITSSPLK
T1 sequence (P00742 41-179 limits assumed): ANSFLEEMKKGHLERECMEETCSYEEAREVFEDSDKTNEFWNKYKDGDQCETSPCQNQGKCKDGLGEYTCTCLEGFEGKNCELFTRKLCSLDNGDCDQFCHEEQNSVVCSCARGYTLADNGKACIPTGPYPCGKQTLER
T2 sequence (P08709 213-466 limits assumed): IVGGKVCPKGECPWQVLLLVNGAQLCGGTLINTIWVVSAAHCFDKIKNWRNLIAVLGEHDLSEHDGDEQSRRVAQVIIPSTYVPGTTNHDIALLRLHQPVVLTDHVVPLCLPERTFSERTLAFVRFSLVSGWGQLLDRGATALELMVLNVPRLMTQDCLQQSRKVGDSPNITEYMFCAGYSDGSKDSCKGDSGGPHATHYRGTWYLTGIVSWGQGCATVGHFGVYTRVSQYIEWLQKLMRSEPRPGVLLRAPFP
T2 sequence (P08709 61-212 limits assumed): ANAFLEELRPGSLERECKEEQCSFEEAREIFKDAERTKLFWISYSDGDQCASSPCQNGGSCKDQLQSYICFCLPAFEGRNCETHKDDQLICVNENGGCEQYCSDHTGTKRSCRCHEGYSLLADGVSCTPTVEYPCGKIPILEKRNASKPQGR
T2 sequence (P13726 33-251 partner limits assumed): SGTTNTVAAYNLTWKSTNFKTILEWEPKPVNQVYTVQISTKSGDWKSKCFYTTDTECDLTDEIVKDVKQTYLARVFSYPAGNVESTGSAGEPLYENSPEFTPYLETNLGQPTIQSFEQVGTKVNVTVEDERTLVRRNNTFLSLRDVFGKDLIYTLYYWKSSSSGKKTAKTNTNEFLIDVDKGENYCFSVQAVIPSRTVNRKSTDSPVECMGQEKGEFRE

Row | SMILES | IC50 (Human factor Xa) | PT (Prothrombin time) 2xPT [1] | IC50 [2] | IC50 (Human thrombin; [3]) | IC50 (Human thrombin; Thrombin (II) IC50, reported only as less than or greater than 30 uM)
1 | CC(C)Nc1ncc(-c2cc(N)cc(OCC3CCCCC3)c2)n(CC(=O)NCc2ccc(C(=N)N)cc2)c1=O.O=C(O)C(F)(F)F.O=C(O)C(F)(F)F [Example 221] | > 30 µM | >50.0 µM | < 0.1 µM | > 30 µM | 
2 | CC[C@@H](C)NC(=O)c1cc(N)cc(-c2cnc(NC(C)C)c(=O)n2CC(=O)NCc2c(F)c(O)c(C(=N)N)c(F)c2F)c1.Cl.Cl [Example 185, 3-[1-[2-({4-[amino(imino)methyl]-2,3,6-trifluoro-5-hydroxybenzyl}amino)-2-oxoethyl]-5-(isopropylamino)-6-oxo-1,6-dihydropyrazin-2-yl]-N-[(1R)-1-methylpropyl]-5-aminobenzamide Dihydrochloride] | > 30 µM | <50.0 µM | < 0.1 µM | > 30 µM | 
3 | CC(C)Nc1ncc(-c2cc(N)cc(C(=O)N[C@H](C(=O)O)c3ccccc3)c2)n(CC(=O)NCc2ccc(C(=N)N)cc2)c1=O [Example 84] | > 30 µM | <50.0 µM | < 0.1 µM | > 30 µM | 
4 | COc1cc(N)cc(-c2cnc(NC(C)C)c(=O)n2CC(=O)NCc2cc(O)c(C(=N)N)c(F)c2)c1.Cl.Cl [Example 123] | > 30 µM | <50.0 µM | < 0.1 µM | > 30 µM | 
5 | CCS(=O)(=O)c1cc(N)cc(-c2cnc(NC(C)C)c(=O)n2CC(=O)NCc2ccc(C(=N)N)cc2)c1.O=C(O)C(F)(F)F.O=C(O)C(F)(F)F [Example 232] | > 30 µM | <50.0 µM | < 0.1 µM | > 30 µM | 
6 | CC(C)Nc1ncc(-c2cc(N)cc(C(F)(F)F)c2)n(CC(=O)NCc2ccc(C(=N)N)s2)c1=O [Example 67] | < 30 µM | <50.0 µM | < 0.1 µM | > 30 µM | 
7 | COC(=O)c1cc(N)cc(-c2cnc(NC(C)C)c(=O)n2CC(=O)NCc2ccc(C(=N)N)c(O)c2)c1 [Example 77] | > 30 µM | <50.0 µM | > 0.1 µM | > 30 µM | 
8 | CC(C)Nc1ncc(-c2cc(N)cc(NC(=O)CCC3CCCC3)c2)n(CC(=O)NCc2ccc(C(=N)N)cc2)c1=O [Example 107] | > 30 µM | <50.0 µM | < 0.1 µM | > 30 µM | 
9 | CC(C)Nc1ncc(-c2cc(N)cc(C(F)(F)F)c2)n(CC(=O)NCc2ccc(C(=N)N)c(F)c2F)c1=O [Example 51] | > 30 µM | <50.0 µM | > 0.1 µM | > 30 µM | 
10 | CC(C)Nc1ncc(-c2cc(N)cc(C(F)(F)F)c2)n(CC(=O)NCc2cc(O)c(C(=N)N)c(F)c2)c1=O.O=C(O)C(F)(F)F [Example 116] | < 30 µM | <50.0 µM | > 0.1 µM | > 30 µM | 
11 | CC(C)Nc1ncc(-c2cc(N)cc(NCCCc3ccccc3)c2)n(CC(=O)NCc2ccc(C(=N)N)cc2)c1=O [Example 111] | > 30 µM | <50.0 µM | < 0.1 µM | > 30 µM | 
12 | CC(C)Nc1ncc(-c2cc(N)cc(OC(C)C)c2)n(CC(=O)NCc2ccc(C(=N)N)cc2)c1=O.O=C(O)C(F)(F)F.O=C(O)C(F)(F)F [Example 216] | > 30 µM | <50.0 µM | < 0.1 µM | > 30 µM | 
13 | CC(C)Nc1ncc(-c2cc(N)cc(S(=O)(=O)C3CCCC3)c2)n(CC(=O)NCc2ccc(C(=N)N)cc2)c1=O.O=C(O)C(F)(F)F.O=C(O)C(F)(F)F [Example 235] | > 30 µM | <50.0 µM | < 0.1 µM | > 30 µM | 
14 | CC(C)Nc1ncc(-c2cc(N)cc(OC3Cc4ccccc4C3)c2)n(CC(=O)NCc2ccc(C(=N)N)cc2)c1=O.O=C(O)C(F)(F)F.O=C(O)C(F)(F)F [Example 218] | > 30 µM | <50.0 µM | < 0.1 µM | > 30 µM | 
15 | CC(C)Nc1ncc(-c2cc(N)cc(OCC(C)(C)N(C)C)c2)n(CC(=O)NCc2ccc(C(=N)N)cc2)c1=O.O=C(O)C(F)(F)F.O=C(O)C(F)(F)F [Example 213] | > 30 µM | <50.0 µM | < 0.1 µM | > 30 µM | 
16 | CCC(C(=O)Nc1cc(N)cc(-c2cnc(NC(C)C)c(=O)n2CC(=O)NCc2ccc(C(=N)N)cc2)c1)c1ccccc1.O=C(O)C(F)(F)F.O=C(O)C(F)(F)F (centres unmarked) [Example 143] | > 30 µM | <50.0 µM | < 0.1 µM | < 30 µM | 

Row | SMILES | IC50 (Human factor Xa) | PT (Prothrombin time) 2xPT [1] | IC50 [2] | IC50 (Human thrombin; [3]) | IC50 (Human thrombin; Thrombin (II) IC50, reported only as less than or greater than 30 uM)
17 | CCCC(CCC)C(=O)Nc1cc(N)cc(-c2cnc(NC(C)C)c(=O)n2CC(=O)NCc2ccc(C(=N)N)cc2)c1.O=C(O)C(F)(F)F.O=C(O)C(F)(F)F [Example 136] | > 30 µM | <50.0 µM | < 0.1 µM | < 30 µM | 
18 | CC(C)Nc1ncc(-c2cc(N)cc(C(=O)N[C@H](C)c3ccccc3)c2)n(CC(=O)NCc2ccc(C(=N)N)cc2)c1=O [Example 58] | > 30 µM | <50.0 µM | < 0.1 µM | < 30 µM | 
19 | COC(=O)[C@H](NC(=O)c1cc(N)cc(-c2cnc(NC(C)C)c(=O)n2CC(=O)NCc2ccc(C(=N)N)cc2)c1)c1ccccc1 [Example 86] | > 30 µM | <50.0 µM | < 0.1 µM | < 30 µM | 
20 | CCCC(C)C(=O)Nc1cc(N)cc(-c2cnc(NC(C)C)c(=O)n2CC(=O)NCc2ccc(C(=N)N)cc2)c1.O=C(O)C(F)(F)F.O=C(O)C(F)(F)F (centres unmarked) [Example 128] | > 30 µM | <50.0 µM | < 0.1 µM | > 30 µM | 
21 | CC(C)Nc1ncc(-c2cc(N)cc(N)c2)n(CC(=O)NCc2ccc(C(=N)N)s2)c1=O [Example 68] | < 30 µM | <50.0 µM | < 0.1 µM | > 30 µM | 
22 | COc1cccc(CC(=O)Nc2cc(N)cc(-c3cnc(NC(C)C)c(=O)n3CC(=O)NCc3ccc(C(=N)N)cc3)c2)c1 [Example 105] | > 30 µM | <50.0 µM | < 0.1 µM | > 30 µM | 
23 | CC(=O)Oc1cc(N)cc(-c2cnc(NC(C)C)c(=O)n2CC(=O)NCc2ccc(C(=N)N)cc2)c1.O=C(O)C(F)(F)F [Example 175] | > 30 µM | <50.0 µM | < 0.1 µM | > 30 µM | 
24 | CC(C)Nc1ncc(-c2cc(N)cc(C(=O)N(C)Cc3ccccc3)c2)n(CC(=O)NCc2ccc(C(=N)N)cc2)c1=O.O=C(O)C(F)(F)F.O=C(O)C(F)(F)F [Example 28] | > 30 µM | <50.0 µM | < 0.1 µM | > 30 µM | 
25 | CCCCOc1cc(N)cc(-c2cnc(NC(C)C)c(=O)n2CC(=O)NCc2ccc(C(=N)N)cc2)c1.O=C(O)C(F)(F)F.O=C(O)C(F)(F)F [Example 222] | > 30 µM | <50.0 µM | < 0.1 µM | > 30 µM | 
26 | CC[C@@H](C)NC(=O)c1cc(N)cc(-c2cnc(NC(C)C)c(=O)n2CC(=O)NCc2ccc(C(=N)N)cc2)c1 [Example 72] | > 30 µM | <50.0 µM | < 0.1 µM | < 30 µM | 
27 | CC(C)Nc1ncc(-c2cc(N)cc(C(=O)N[C@@H](C)C3CCCCC3)c2)n(CC(=O)NCc2ccc(C(=N)N)cc2)c1=O.O=C(O)C(F)(F)F [Example 82] | > 30 µM | <50.0 µM | < 0.1 µM | < 30 µM | 
28 | COC(=O)CCNC(=O)c1cc(N)cc(-c2cnc(NC(C)C)c(=O)n2CC(=O)NCc2ccc(C(=N)N)cc2)c1 [Example 165] | > 30 µM | <50.0 µM | < 0.1 µM | > 30 µM | 
29 | COCCOc1cc(N)cc(-c2cnc(NC(C)C)c(=O)n2CC(=O)NCc2ccc(C(=N)N)cc2)c1.O=C(O)C(F)(F)F.O=C(O)C(F)(F)F [Example 219] | > 30 µM | <50.0 µM | < 0.1 µM | > 30 µM | 
30 | CCNc1ncc(-c2cc(N)cc(C(=O)N[C@@H](C)CC)c2)n(CC(=O)NCc2ccc(C(=N)N)cc2)c1=O.O=C(O)C(F)(F)F.O=C(O)C(F)(F)F [Example 194] | > 30 µM | <50.0 µM | < 0.1 µM | > 30 µM | 
31 | CC[C@@H](C)Nc1ncc(-c2cc(N)cc(C(=O)N[C@@H](C)CC)c2)n(CC(=O)NCc2ccc(C(=N)N)cc2)c1=O.O=C(O)C(F)(F)F.O=C(O)C(F)(F)F [Example 203] | > 30 µM | <50.0 µM | < 0.1 µM | < 30 µM | 
32 | CC(C)Nc1ncc(-c2cc(N)cc(OC(=O)NCc3ccccc3)c2)n(CC(=O)NCc2ccc(C(=N)N)cc2)c1=O.O=C(O)C(F)(F)F.O=C(O)C(F)(F)F [Example 239] | > 30 µM | <50.0 µM | < 0.1 µM |  | > 30 µM
